Assay results: patent publication US10941115B2, “Kinase inhibitors” (Oxular Acquisitions Limited, priority 2014, dated 2021)
Where a name gives a salt, the structure may show the parent alone. Read-outs that look alike come from different tables or passages of the source.

Tests used:
non-mutant kinases = assay type: binding; conditions: for KinomeScan Selectivity Score S(10): fraction of non-mutant kinases with % Ctrl <10; for KinomeScan Selectivity Score S(1): fraction of non-mutant kinases with % Ctrl <1
Excerpt: These assays may be conducted by DiscoverX (formerly Ambit; San Diego, Calif.).

[1] = Hydrolytic stability study in DMSO/water (3:1) at 60 °C; assay type: physicochemical; conditions: DMSO/water 3:1, 1 mg/mL, result in words
Experimental: Flow rate 2.5 mL/min. Column Oven Temperature 40° C. […] The peak area for the test compound was recorded following manual integration of the corresponding UV trace. • The test solution was heated to 60° C., with stirring, and 50 μL aliquots removed for HPLC analysis at 5 and 24 h timepoints.

[2] = test system: Escherichia coli WP2 uvrA; assay: Bacterial reverse mutation screen (plate incorporation, ±S-9); conditions: for mutagenic effects (revertant numbers): presence and absence of S-9 mix
[3] = test system: Salmonella typhimurium strains TA1535, TA1537, TA98 and TA100; assay: as above; conditions: for mutagenic effects (revertant numbers): TA1535, TA1537, TA98, TA100, presence and absence of S-9 mix; for toxicity to the bacteria (mean colony count): at the highest doses (500-5000 μg/plate), some strains
[4] = Stability of pharmaceutical formulations (1 mg/mL solutions); assay type: physicochemical; conditions: for Purity (%) at week n = 4: week 4; for Purity (%) at week n = 1: week 1
Experimental: The samples were sonicated to achieve clear solutions having the following properties: Osmolality (mOsm/kg): 310 (Na), 314 (HCl); pH: 7.00 (Na), 7.05 (HCl). 0.5 mL of the stock solutions were diluted to 1 mL with 20% DMSO in water & injected for purity analysis by HPLC. The remaining stock solutions were then split into aliquots of 0.5 mL in HPLC vials, and stored at various conditions in duplicate. Samples were stored at 5 and 25° C., before being analysed by HPLC at 1, 2 and 4 weeks. Separate samples were stored at 40° C. and analysed at 4 weeks.

[5] = 0.1 and 1.0 mg/mL, four daily ocular instillations, rabbits
LPS-stimulated rats = assay: Endotoxin-induced uveitis in rats (assay vi); assay type: in vivo, Lewis rats; conditions: rats treated with intravitreal LPS, result in words
Experimental: Male, Lewis rats (6-8 weeks old, Charles River UK Limited) are housed in cages of 3 at 19-21° C. with a 12 h light/dark cycle (07:00/19:00) and fed a standard diet of rodent chow and water ad libitum. Non-fasted rats are weighed, individually identified on the tail with a permanent marker, and receive a single intravitreal administration into the right vitreous humor (5 μL dose volume) of 100 ng/animal of LPS (Escherichia coli 0111:B4 prepared in PBS, Sigma Aldrich, UK) using a 32-gauge needle. Untreated rats are injected with PBS. Test compound or vehicle (4% polyoxyl 40 stearate, 4% mannitol in PBS (pH 7.4)) are administered by the topical route onto the right eye (10 μL) of animals 1 hour prior to LPS, at the time of LPS administration, and 1, 2 and 4 hours post LPS administration. Before administration, the solution to be administered is sonicated to ensure a clear solution. 6 hours after LPS dosing, animals are euthanized by overdose with pentobarbitone (via cardiac puncture). Immediately after euthanasia, 10 μL of aqueous humor is collected from the right eye of the rats by puncture of the anterior chamber using a 32 gauge needle under a surgical microscope. The aqueous humor is diluted in 20 μL of PBS and total cell counts are measured immediately using a Countess automated cell counter (Invitrogen). […]

COc1cc(Nc2cc(Oc3ccc(NC(=O)Nc4cc(C(C)(C)C)cc(NS(C)(=O)=O)c4OC)c4ccccc34)ccn2)cc(OC)c1C(=O)NCCOCCOCCOP(=O)(O)O [Example 47, 2-(2-(2-(4-((4-((4-(3-(5-(tert-butyl)-2-methoxy-3-(methylsulfonamido)phenyl)ureido)-naphthalen-1-yl)oxy)pyridin-2-yl)amino)-2,6-dimethoxybenzamido)ethoxy)ethoxy)ethyl dihydrogen phosphate]
KinomeScan Selectivity Score S(10) (non-mutant kinases; 50 nM): 0.042
KinomeScan Selectivity Score S(1) (non-mutant kinases; 500 nM): 0.074

C#Cc1cc(Nc2nccc(Oc3ccc(NC(=O)Nc4cc(C(C)C)nn4-c4ccc(C)cc4)c4ccccc34)n2)cc(C(=O)NCCN2CCOCC2)c1 [Reference Compound B, 3-ethynyl-5-((4-((4-(3-(3-isopropyl-1-(p-tolyl)-1H-pyrazol-5-yl)ureido)naphthalen-1-yl)oxy)pyrimidin-2-yl)amino)-N-(2-morpholinoethyl)benzamide]
decomposition under the conditions of the hydrolytic stability study [1]: underwent substantial decomposition

COc1cc(Nc2cc(Oc3ccc(NC(=O)Nc4cc(C(C)(C)C)cc(NS(C)(=O)=O)c4OC)c4ccccc34)ccn2)cc(OC)c1C(=O)NCCOCCOCCO [Example 36, 4-((4-((4-(3-(5-(tert-butyl)-2-methoxy-3-(methylsulfonamido)phenyl)ureido)naphthalen-1-yl)oxy)pyridin-2-yl)amino)-N-(2-(2-(2-hydroxyethoxy)ethoxy)ethyl)-2,6-dimethoxybenzamide]
KinomeScan Selectivity Score S(1) (non-mutant kinases; 50 nM): 0.002
KinomeScan Selectivity Score S(10) (non-mutant kinases; 50 nM): 0.050
KinomeScan Selectivity Score S(1) (non-mutant kinases; 500 nM): 0.079

COc1cc(Nc2cc(Oc3ccc(NC(=O)Nc4cc(C(C)(C)C)cc(NS(C)(=O)=O)c4OC)c4ccccc34)ccn2)ccc1P(C)(=O)O [Example 44, (4-((4-((4-(3-(5-(tert-Butyl)-2-methoxy-3-(methylsulfonamido)phenyl)ureido)naphthalen-1-yl)oxy)pyridin-2-yl)amino)-2-methoxyphenyl)(methyl)phosphinic acid]
toxicity to the bacteria (mean colony count) ([2]; 5000 μg/plate, absence of S-9 mix): reduction in the mean colony count
mutagenic effects (revertant numbers) [2]: absence of any mutagenic effects
mutagenic effects (revertant numbers) [3]: absence of any mutagenic effects
toxicity to the bacteria (mean colony count) [3]: reduction in the mean colony count

COc1cc(Nc2cc(Oc3ccc(NC(=O)Nc4cc(C(C)(C)C)cc(NS(C)(=O)=O)c4OC)c4ccccc34)ccn2)ccc1C(=O)O [Example 1, sodium salt]
Purity (%) at week n = 4 ([4]; 1 mg/mL solution, Sample 1, 40° C.): 76.0%

COc1cc(Nc2cc(Oc3ccc(NC(=O)Nc4cc(C(C)(C)C)cc(NS(C)(=O)=O)c4OC)c4ccccc34)ccn2)ccc1C(=O)O [Example 1, 4-((4-((4-(3-(5-(tert-Butyl)-2-methoxy-3-(methylsulfonamido)phenyl)ureido)naphthalen-1-yl)oxy)pyridin-2-yl)amino)-2-methoxybenzoic acid]
local tolerability of the formulations ([5]; Phase 1: one treatment day): acceptable after a single dosing day
ocular reactions compared with vehicle controls ([5]; Phase 1: one treatment day): no differences in the frequency, severity and incidence between the Example 1-treated animals and the vehicle controls
local tolerability of the formulations ([5]; Phase 2: three consecutive treatment days): acceptable without any aggravation for the 3 treatment days
mutagenic effects (revertant numbers) [2]: absence of any mutagenic effects
stability in solution ([4]; 1 mg/mL Na and HCl salts in pH 7.2 phosphate buffer, 4.5% mannitol, 3% polyoxyl 40 stearate): stable in solution at 5 °C
cellular infiltration (cell counts) in the eyes (LPS-stimulated rats): significantly and dose-dependently reduced cellular infiltration
cytokine IL-1β levels in anterior and posterior segments of the eyes (LPS-stimulated rats): significantly and dose-dependently reduced
mutagenic effects (revertant numbers) [3]: absence of any mutagenic effects
toxicity to the bacteria (mean colony count) [3]: reduction in the mean colony count

COc1cc(Nc2cc(Oc3ccc(NC(=O)Nc4cc(C(C)(C)C)cc(NS(C)(=O)=O)c4OC)c4ccccc34)ccn2)ccc1C(=O)O.Cl [Example 1, hydrochloride salt]
Purity (%) at week n = 1 ([4]; 1 mg/mL solution, Sample 1, 25° C.): 98.0%
Purity (%) at week n = 2 ([4]; 1 mg/mL solution, Sample 2, 5° C., week 2): 98.0%
Purity (%) at week n = 4 ([4]; 1 mg/mL solution, Sample 2, 5° C.): 98.0%
Purity (%) at week n = 1 ([4]; 1 mg/mL solution, Sample 2, 25° C.): 98.0%
